Here are results for 1 molecule from PMC6359039, “Pharmacokinetics, Tissue Distribution, Plasma Protein Binding Studies of 10-Dehydroxyl-12-Demethoxy-Conophylline, a Novel Anti-Tumor Candidate, in Rats” (Molecules, 2019).

“Also recorded” adds a separate entry of the source.

Series [1] is described as follows: Plasma protein binding by equilibrium dialysis, human plasma. It is filed as in vitro ADME. To be noted: read-out: protein binding degree (converted). The procedure:
(§1) Protein binding was determined in vitro by equilibrium dialysis of plasma of rats or human serum albumin. Blank dialysate, internal dialysate, and external dialysate were prepared separately. The internal dialysate was prepared by taking 0.4 mL of blank plasma and adding 100 μL of the 10-dehydroxyl-12-demethoxy-conophylline series standard solution to prepare the equivalent of 10-dehydroxyl-12-demethoxy-conophylline plasma concentrations of 0.078, 0.156, 0.312, 0.625, 1.250, 2.500, 5.000, and 20.000 μg/mL simulating biological samples. The external dialysate was prepared by taking 0.4 mL of blank dialysate and adding 100 μL of the 10-dehydroxyl-12-demethoxy-conophylline series standard solution to prepare the equivalent of 10-dehydroxyl-12-demethoxyconophylline plasma concentrations of […] simulating dialysate samples. The protein binding rate of 10-dehydroxyl-12-demethoxy-conophylline in plasma was measured using the equilibrium dialysis method in this experiment. The concentration of unbound compound (B) and bound compound to protein (A) were calculated as follows:F = (A − B)/A,(1) where F is the bounded fraction, A is the compound concentration in the plasma compartment, and B is the concentration of the compound in the phosphate buffer compartment.
A general note: In equilibrium dialysis only unbound substance equilibrates across the membrane.

Series [2] is described as follows: Plasma protein binding by equilibrium dialysis, rat plasma. It is filed as in vitro ADME. To be noted: Sprague Dawley. The procedure: as §1
For a further series, the system named is SW480. Further details: method as in PMID 29772302. To be noted: cited from earlier work.
For the next series, the system named is MCF-7. Further details: method as in PMID 29772302. To be noted: cited from earlier work.
Series [3] in a line: Tissue distribution in rats after a single i.v. dose. To be noted: rat, single i.v. dose 8 mg/kg. The class given is in vivo, Sprague Dawley rats. As for the experimental part: Chromatographic separation was performed using a UPLC system (Waters ACQUITY-CLASS. US) with an analytical column Kinetex (C18, 1.7 μm, 2.1 mm × 100 mm; Phenomenex; California; CA, USA) at 25 °C. Water and methanol (75:25) were used as the isocratic elution, running at a flow rate of 0.2 mL/min. The detector was used with fluorescence (FLR) detection with a fluorescence excitation wavelength of 330 nm and a fluorescence emission wavelength of 439 nm.
For the tissue concentration study of 10-dehydroxyl-12-demethoxy-conophylline, 18 (SD) rats (half male and female) were randomly divided into three groups. The rats were administered intravenously at a dose of 8 mg/kg of 10-dehydroxyl-12-demethoxy-conophylline, and the rats were euthanized at 5, 20, and 45 min after administration. Samples of their tissues and blood were carefully collected and washed with sodium phosphate buffer (pH 7.4) to remove blood. Each tissue (0.2 g) was homogenized in normal saline (1 mL). Subsequently, an amount 120 μL of the homogenate was pipetted into 480 μL of methanol and vortexed for 3 min, and then centrifuged at 14,000 rpm for 10 min. The supernatant was then centrifuged again at 14,000 rpm for 10 min and stored at −70 °C until analysis. The preparation process for analysis was the same as described above for plasma.

The test system of another series is A-549. Further details: method as in PMID 29772302. The conditions noted are these: cited from earlier work.

As to `CC[C@@]12CC(C(=O)OC)=C3Nc4cc5c(cc4[C@@]34CCN(C[C@H]3O[C@H]31)[C@@H]24)[C@@H]1C(O5)[C@@H](O)[C@@]2(CC)CC(C(=O)OC)=C3Nc4cc(OC)ccc4[C@@]34CCN1[C@@H]24` (stereo partly drawn) [10-dehydroxyl-12-demethoxy-conophylline, 10-Dehydroxyl-12-demethoxy-conophylline], the fraction unbound at 1 µg/mL in series [1] (1.00 µg/mL) was 0.131; in series [2] (1.00 µg/mL, equilibrium dialysis, read-out: protein binding degree (converted)), 0.181. Besides, the fraction unbound at 2.5 µg/mL in series [1] (2.50 µg/mL) was 0.159; in series [2] (2.50 µg/mL, equilibrium dialysis, read-out: protein binding degree (converted)) it was 0.174. Moreover, the fraction unbound at 5 µg/mL is 0.153 in series [1] (5.00 µg/mL) and 0.188 in series [2] (5.00 µg/mL, equilibrium dialysis, read-out: protein binding degree (converted)). Also, in series [2] (rat, three concentrations (1.00, 2.50 and 5.00 µg/mL), summary in abstract, read-out: protein binding degree), the fraction unbound is < 0.2. Moreover, the “inhibitory activity on SW480 tumor cell line” value in the series with SW480 is “significant inhibitory activity”. For the same molecule, the “inhibitory activity on MCF-7 tumor cell line” value with MCF-7 is recorded as “significant inhibitory activity”. Moreover, the “concentration in the brain” value in series [3] is “kept to a small amount”. The “tissue distribution at 5 min” value in series [3] (5 min) is “in the heart and kidney were markedly higher than in other tissues”. The “tissue distribution at 20 min” value in series [3] (20 min (equilibrium time)) is “the drug concentration in the lung reached the highest at this time”. For the same molecule, in series [3] (45 min (elimination period)), the “tissue distribution at 45 min” value was “mainly distributed in the liver and kidney tissues”. The “tissue distribution, tissues with highest levels” value in series [3] (overall, 8 mg/kg) is “detected in all examined tissues with the highest in kidney, liver, and lung; also recorded: the distribution in the kidney and lung is the highest”. Besides, in the series on A-549, the “inhibitory activity on A-549 tumor cell line” value is on record as “significant inhibitory activity”.
